In PubChem BioAssay (NCI):
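How tested: cells in 96-well plates exposed to compound for 48 hours at five concentrations. Abbreviation: GI50, concentration required for 50% inhibition of growth. TGI denotes the concentration required for complete inhibition of growth.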

Columns and labels:
Assay in all cases: NCI anticancer screen, dose series, 48 h
A498 renal = system: A498 renal
A549 NSCLC = system: A549 NSCLC
CCRF-CEM leukemia = system: CCRF-CEM leukemia
COLO 205 colon = system: COLO 205 colon
HL-60(TB) leukemia = system: HL-60(TB) leukemia
HT29 colon = system: HT29 colon
NCI-H23 lung = system: NCI-H23 lung
OVCAR-5 ovarian = system: OVCAR-5 ovarian
SF-295 CNS = system: SF-295 CNS
SK-MEL-5 melanoma = system: SK-MEL-5 melanoma

SMILES | GI50 (A498 renal) [µM] | TGI (A498 renal) [µM] | GI50 (A549 NSCLC) [µM] | TGI (A549 NSCLC) [µM] | GI50 (CCRF-CEM leukemia) [µM] | TGI (CCRF-CEM leukemia) [µM] | GI50 (COLO 205 colon) [µM] | TGI (COLO 205 colon) [µM] | GI50 (HL-60(TB) leukemia) [µM] | TGI (HL-60(TB) leukemia) [µM] | GI50 (HT29 colon) [µM] | TGI (HT29 colon) [µM] | GI50 (NCI-H23 lung) [µM] | TGI (NCI-H23 lung) [µM] | GI50 (OVCAR-5 ovarian) [µM] | TGI (OVCAR-5 ovarian) [µM] | GI50 (SF-295 CNS) [nM] | TGI (SF-295 CNS) [µM] | GI50 (SK-MEL-5 melanoma) [µM] | TGI (SK-MEL-5 melanoma) [µM]
O=P(O)(O)C(O)(Cn1ccnc1)P(=O)(O)O | > 62.8 | > 100 | > 95.7 | > 100 | > 100 | > 100 | > 100 | > 100 | > 71.2 | > 100 | > 90.6 | > 100 | > 89.7 | > 100 | > 89.2 | > 100 | > 100000 | > 100 | > 43 | > 78
Nc1ccc(SC23CC4CC(CC(C4)C2)C3)cc1 |  | > 100 |  | > 100 |  | > 100 |  | > 100 |  | > 100 |  | > 100 |  | > 100 |  | > 100 |  | > 100 |  | > 100
CC(=O)c1c(C)n([O-])c2cc(C)c(C)cc2[n+]1=O |  | > 100 |  | > 100 |  | > 100 |  | > 100 |  | > 100 |  | > 100 |  | > 100 |  | > 100 |  | > 100 |  | > 100
O=C1N[C@@H](O)[C@@H]2ON=C(c3ccccc3)[C@H]12 |  | > 100 |  | > 100 |  | > 100 |  | > 100 |  | > 100 |  | > 100 |  | > 100 |  | > 100 |  | > 100 |  | > 100
C=CCOc1c(Br)cc(Br)cc1Br | 8.49 | > 100 | 45.8 | > 100 | 10.4 | > 100 | 22.2 | 56.9 | 32.1 | 89.3 | 33 | > 100 | 10.1 | > 100 | 28.2 | > 100 | 2710 | 9.53 | 43.4 | > 100
Oc1ccc(Cc2ccccc2)c2cccnc12 | 25.6 | > 100 | 4.21 | 71.9 | 0.423 | 5.44 | 7.74 | > 100 | 1.56 | 6.65 | 22.5 | > 100 | 2.9 | 57.1 | 4.73 | > 100 | 1340 | 20.5 | 1.52 | 10.8
CC(C)(C)c1nc2c(o1)C(=Nc1ccc(F)cc1)c1ccccc1C2=O |  | 50.9 |  | 22.7 |  | > 100 |  | 30.7 |  | > 44.9 |  | 41.6 |  | 8.98 |  | 34.3 |  | 19.6 |  | 3.45
COc1ccc2c(-c3cc4ccccc4o3)cc(=O)oc2c1 |  | > 92 |  | > 100 |  | > 100 |  | > 100 |  | > 100 |  | > 100 |  | > 100 |  | > 100 |  | 79.7 |  | > 100
CNC(=O)c1cn(C[C@H](F)CCc2ccc(NC(=O)Cc3cc(OC4CC(F)(F)C4)cc(C)n3)nn2)nn1 | 0.0854 | 1.27 | 0.0594 | > 100 | > 45.8 | > 100 | > 100 | > 100 | > 100 | > 100 | > 100 | > 100 | > 100 | > 100 | > 100 | > 100 | > 100000 | > 100 | > 100 | > 100
C[C@H]1CCC/C=C/[C@@H]2C[C@H](N)C[C@H]2[C@H](O)/C=C/C(=O)O1 | 67.9 | > 100 | > 100 | > 100 | 83.2 | > 100 | > 100 | > 100 | 98.4 | > 100 | > 100 | > 100 | > 100 | > 100 | > 100 | > 100 | > 100000 | > 100 | 77.1 | > 100
NCCN1CCN(c2nccc(-c3ccc4ccccc4c3)n2)CC1 | 1.59 | 3.3 | 1.86 | 3.43 | 1.85 | 4.37 | 1.76 | 3.41 | 2.23 | 5.76 | 1.93 | 3.77 | 4.17 | 16.5 | 1.85 | 4.04 | 1680 | 3.34 | 1.67 | 3.05
Cc1noc(C)c1-c1ccc2[nH]c(=O)n3c2c1OC[C@@H]3c1ccccn1 |  | 6.25 | 2.92 | > 100 | 2.07 | > 100 | 0.433 | > 100 | 0.144 | > 100 | 0.415 | > 100 | 9.44 | > 100 | 5.87 | > 100 | 1840 | > 100 | 3.81 | > 100
CC1=C(C)C(=O)O[C@@H]([C@](C)(O)[C@]2(O)CC[C@@]3(O)[C@@H]4C[C@H]5O[C@]56CC=CC(=O)[C@]6(C)[C@H]4CC[C@]23C)C1 | 0.218 | 0.784 | 0.568 | 5.93 | 0.163 |  | 0.0398 | 0.176 | 0.0412 | 1.48 | 0.066 | 1.47 | 0.254 | 2.93 | 0.299 | 2.51 | 620 | 14.7 | 0.269 | 1.43
CN(C)CCNC(=O)Nc1c(C#N)[n+]([O-])c2cc(Cl)c(Cl)cc2[n+]1[O-] | 51.6 | > 100 | 34 | > 100 | 6.88 | > 100 | 16.1 | 46.3 | 27.2 | > 100 | 27.3 | > 100 | 27 | > 100 | 87.1 | > 100 | 15000 | 84.8 | 14.3 | 38.1
